Laboratory results from patent publication US20240327383A1 (priority 2021, published 2024).
Where “and” joins values, the source holds several entries; their conditions need not be identical. Equal values may be shown once.

Legend:
SNI neuropathic pain [1] = test system: SNI neuropathic pain; parameters: species or system rats; details: rat, in vivo
SNI neuropathic pain [2] = test system: SNI neuropathic pain; parameters: species or system rats; details: rat, in vivo; remark: listed apart in the source

NCC1(CC(=O)O)CCCCC1 [Gabapentin]
mean relative analgesic rate of foot weight bearing (SNI neuropathic pain [1]): 20.85% and 17.55% and 14.07%
mean relative analgesic rate of Von Frey Hairs (SNI neuropathic pain [2]): 29.71% and 36.26%
